Measured values published in patent US10570168B2, “2′ and/or 5′ amino-acid ester phosphoramidate 3′-deoxy adenosine derivatives as anti- cancer compounds” (NuCana plc, priority 2014, dated 2020).
Where two headings read alike, the source gives them in different places.

What was measured:
Type in all cases: cell-based
HepG2 [1] = test: Solid tumour and haematological malignancy assay (CellTiterGlo); conditions: Homo sapiens; for IC50: read-out: IC50 (absolute IC50)
Outline: (§1)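 Cell viability by CellTiterGlo after 72 h compound exposure under standard growth conditions, in duplicate, with 0.5% final DMSO.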

CCRFCEM = test: as above; conditions: Homo sapiens, CCRF-CEM; for IC50: read-out: IC50 (absolute IC50); for Emax: read-out: MI %
Outline: as §1

HEL92.1.7 = test: as above; conditions: Homo sapiens; for IC50: read-out: IC50 (absolute IC50)
Outline: as §1

MCF-7 = test: CellTiterGlo viability assay, initial screening; conditions: Homo sapiens, read-out: IC50 (relative IC50)
Method: (§2) In vitro viability assays were performed to assess the effects of compounds on cell viability in 7 selected cell lines over 72 hr using the CellTiterGlo (CTG, Promega-G7573) assay. The tests were performed in duplicates with treatment of compounds at 9 points, 3.16 folds titration in 96 well plates over ˜72 hr. The compound starting concentrations were […]. Cell viability assay using CellTiterGlo in 96-well plate were performed. The compound treatment was 72 hrs, under standard growth conditions, and in duplicate. Compounds were dissolved to 40 mM with thawed […]. Compounds were serially diluted at 3.16 fold in thawed DMSO, and warmed to 37° C. before being dissolved in media (2 μl+200 μl). After compounds were dissolved in media (media was also warmed to 37° C.). Media containing compounds were warmed to 37° C. in incubator and then compounds in media were added to cell plates (50 μl+50 μl), in duplicates. The compounds final concentrations were from […] to 19.9 nM. All compound solubilities were checked and recorded again, then the plates were transferred to CO2 tissue culture incubator immediately and incubated for 3 days. DMSO final concentration is 0.5%.

K562 = test: CellTiterGlo viability assay, initial screening; conditions: Homo sapiens, read-out: IC50 (relative IC50)
Method: as §2

HL-60 = test: CellTiterGlo viability assay, initial screening; conditions: Homo sapiens, read-out: IC50 (relative IC50)
Method: as §2

HepG2 [2] = test: CellTiterGlo viability assay, initial screening; conditions: Homo sapiens, read-out: IC50 (relative IC50)
Method: as §2

MOLT-4 [3] = test: CellTiterGlo viability assay, initial screening; conditions: Homo sapiens, read-out: IC50 (relative IC50)
Method: as §2

KG-1 = test: CellTiterGlo viability assay, initial screening; conditions: Homo sapiens, read-out: IC50 (relative IC50)
Method: as §2

SW620 = test: Solid tumour and haematological malignancy assay (CellTiterGlo); conditions: Homo sapiens; for IC50: read-out: IC50 (absolute IC50)
Method: (§3) In vitro viability assay were performed to assess the effects of compounds on cell viability in selected cell lines over 72 hr using the CellTiterGlo (CTG, Promega-G7573) assay. The tests were performed in duplicates with treatment of compounds at 9 points, 3.16 folds titration in 96 well plates over ˜72 hr. The compound starting concentrations were […]. Cell viability assay using CellTiterGlo in 96-well plate were performed. Compound treatment 72 hrs, standard growth conditions, duplicates. Compounds were dissolved to 40 mM with thawed […]. Compounds were serially diluted at 3.16 fold in thawed DMSO, and warmed to 37° C. before being dissolved in media ([…]). After compounds were dissolved in media, media containing compounds were warmed to 37° C. in incubator and then compounds in media were added to cell plates ([…]) in duplicates. The compounds' final concentrations were from […] to 19.9 nM. All compound solubilities were checked and recorded again, then the plates were transferred to CO2 tissue culture incubator immediately and incubated for 3 days. DMSO final concentration is 0.5%.

THP-1 = test: as above; conditions: Homo sapiens; for IC50: read-out: IC50 (absolute IC50)
Method: as §3

HS445 = test: as above; conditions: for IC50: read-out: IC50 (absolute IC50)
Method: as §3

RL = test: as above; conditions: Homo sapiens; for IC50: read-out: IC50 (absolute IC50)
Method: as §3

RPMI-8226 = test: as above; conditions: Homo sapiens; for IC50: read-out: IC50 (absolute IC50)
Method: as §3

Jurkat = test: as above; conditions: Homo sapiens, read-out: IC50 (absolute IC50)
Method: as §3

MV4-11 = test: as above; conditions: Homo sapiens; for IC50: read-out: IC50 (absolute IC50); for Emax: read-out: MI %
Method: as §3

MOLT-4 [4] = test: as above; conditions: Homo sapiens; for IC50: read-out: IC50 (absolute IC50)
Method: as §3

Z138 = test: as above; conditions: Homo sapiens; for IC50: read-out: IC50 (absolute IC50); for Emax: read-out: MI %
Method: as §3

BxPC-3 = test: as above; conditions: Homo sapiens, read-out: IC50 (absolute IC50)
Method: as §3

NCI-H929 = test: as above; conditions: Homo sapiens; for IC50: read-out: IC50 (absolute IC50); for Emax: read-out: MI %
Method: as §3

With C[C@H](NP(=O)(OC[C@@H]1C[C@@H](O)[C@H](n2cnc3c(N)ncnc32)O1)Oc1cccc2ccccc12)C(=O)OCc1ccccc1 (stereo partly drawn) [B, (2S)-benzyl 2-(((((2S,4R,5R)-5-(6-amino-9H-purin-9-yl)-4-hydroxytetrahydrofuran-2-yl)methoxy)(naphthalen-1-yloxy)phosphoryl)amino)propanoate] the IC50 (HepG2 [1]; HepG2, 72 h) was 5 to 15 µM, the IC50 (CCRFCEM; 72 h) was 0.1 to 5 µM and the Emax (CCRFCEM; 72 h) was 100%. The IC50 (HEL92.1.7; HEL 92.1.7, 72 h) was 0.1 to 5 µM, the IC50 (MCF-7; MCF7, 72 h) was 0.1 to 5 µM and the IC50 (K562; K562, 72 h) was 0.1 to 5 µM. For the same compound, the IC50 (HL-60; HL-60, 72 h) was 5 to 15 µM, the IC50 (HepG2 [2]; HepG2, 72 h) was 5 to 15 µM and the IC50 (MOLT-4 [3]; MOLT-4, 72 h) was 0.1 to 5 µM. It also gave an IC50 (KG-1; KG-1, 72 h) of 5 to 15 µM, an IC50 (SW620; SW-620, 72 h) of 5 to 15 µM and an IC50 (THP-1; THP-1, 72 h) of 15 to 100 µM. It also gave an IC50 (HS445; Hs 445, 72 h) of 5 to 15 µM, an IC50 (RL; 72 h) of 0.1 to 5 µM and an IC50 (RPMI-8226; RPMI-8226, 72 h) of 5 to 15 µM. It also gave an IC50 (Jurkat; 72 h) of 0.1 to 5 µM, an IC50 (MV4-11; MV4-11, 72 h) of 0.1 to 5 µM and an Emax (MV4-11; MV4-11, 72 h) of 99%. For the same compound, the IC50 (MOLT-4 [4]; MOLT-4, 72 h) was 0.1 to 5 µM, the IC50 (Z138; Z-138, 72 h) was 5 to 15 µM and the Emax (Z138; Z-138, 72 h) was 100%. The IC50 (BxPC-3; BXPC-3, 72 h) was 5 to 15 µM, the IC50 (NCI-H929; NCI-H929, 72 h) was 0.1 to 5 µM and the Emax (NCI-H929; NCI-H929, 72 h) was 99%.

Work on Nc1ncnc2c1ncn2[C@@H]1O[C@H](CO)C[C@H]1O [Cordycepin, 3′-deoxyadenosine, reference compound] yielded an IC50 (HepG2 [1]; HepG2, 72 hr) of over 100 µM, an Emax (HepG2 [1]; HepG2, 72 hr, read-out: MI %) of 13% and an IC50 (CCRFCEM; CCRFCEM, 72 hr) of over 100 µM. It also gave an Emax (CCRFCEM; CCRFCEM, 72 hr) of 41%, an IC50 (HEL92.1.7; HEL 92.1.7, HEL92.1.7, 72 hr) of 15 to 100 µM and an Emax (HEL92.1.7; HEL 92.1.7, HEL92.1.7, 72 hr, read-out: MI %) of 88%. The IC50 (MCF-7; MCF7, MCF-7, 72 hr) was 15 to 100 µM, the IC50 (K562; K562, 72 hr) was 15 to 100 µM and the IC50 (HL-60; HL-60, 72 hr) was 15 to 100 µM. It also gave an IC50 (HepG2 [2]; HepG2, 72 hr) of 15 to 100 µM, an IC50 (MOLT-4 [3]; MOLT-4, 72 hr) of 15 to 100 µM and an IC50 (KG-1; KG-1, 72 hr) of 15 to 100 µM. For the same compound, the IC50 (SW620; SW-620, SW620, 72 hr) was over 100 µM, the Emax (SW620; SW-620, SW620, 72 hr, read-out: MI %) was 10% and the IC50 (THP-1; THP-1, 72 hr) was over 100 µM. For the same compound, the Emax (THP-1; THP-1, 72 hr, read-out: MI %) was -3%, the IC50 (HS445; Hs 445, HS445, 72 hr) was over 100 µM and the Emax (HS445; Hs 445, HS445, 72 hr, read-out: MI %) was 2%. For the same compound, the IC50 (RL; 72 hr) was over 100 µM, the Emax (RL; 72 hr, read-out: MI %) was 17% and the IC50 (RPMI-8226; RPMI-8226, 72 hr) was over 100 µM. The Emax (RPMI-8226; RPMI-8226, 72 hr, read-out: MI %) was 1%, the IC50 (Jurkat; 72 hr) was over 100 µM and the IC50 (MV4-11; MV4-11, 72 hr) was over 100 µM. It also gave an Emax (MV4-11; MV4-11, 72 hr) of 1%, an IC50 (MOLT-4 [4]; MOLT-4, 72 hr) of over 100 µM and an Emax (MOLT-4 [4]; MOLT-4, 72 hr, read-out: MI %) of 46%. The IC50 (Z138; Z-138, Z138, 72 hr) was 5 to 15 µM, the Emax (Z138; Z-138, Z138, 72 hr) was 95% and the IC50 (BxPC-3; BxPC-3, 72 hr) was over 100 µM. It also gave an IC50 (NCI-H929; NCI-H929, 72 hr) of over 100 µM and an Emax (NCI-H929; NCI-H929, 72 hr) of 24%.

COC(=O)C(C)(C)NP(=O)(OC[C@@H]1C[C@@H](O)[C@H](n2cnc3c(N)ncnc32)O1)Oc1cccc2ccccc12 (stereo partly drawn) [E, Methyl 2-(((((2S,4R,5R)-5-(6-amino-9H-purin-9-yl)-4-hydroxytetrahydrofuran-2-yl)-methoxy)(naphthalen-1-yloxy)phosphoryl)amino)-2-methylpropanoate] was tested, and the IC50 (HepG2 [1]; HepG2, 72 h) was 15 to 100 µM, the IC50 (CCRFCEM; 72 h) was 0.1 to 5 µM and the Emax (CCRFCEM; 72 h) was 100%. The IC50 (HEL92.1.7; HEL 92.1.7, 72 h) was 15 to 100 µM, the IC50 (MCF-7; MCF7, 72 h) was 15 to 100 µM and the IC50 (K562; K562, 72 h) was over 100 µM. For the same compound, the IC50 (HL-60; HL-60, 72 h) was 15 to 100 µM, the IC50 (HepG2 [2]; HepG2, 72 h) was 15 to 100 µM and the IC50 (MOLT-4 [3]; MOLT-4, 72 h) was 5 to 15 µM. The IC50 (KG-1; KG-1, 72 h) was 15 to 100 µM, the IC50 (SW620; SW-620, 72 h) was 15 to 100 µM and the IC50 (THP-1; THP-1, 72 h) was over 100 µM. For the same compound, the IC50 (HS445; Hs 445, 72 h) was 15 to 100 µM, the IC50 (RL; 72 h) was 5 to 15 µM and the IC50 (RPMI-8226; RPMI-8226, 72 h) was 15 to 100 µM. It also gave an IC50 (Jurkat; 72 h) of 5 to 15 µM, an IC50 (MV4-11; MV4-11, 72 h) of 5 to 15 µM and an IC50 (MOLT-4 [4]; MOLT-4, 72 h) of 0.1 to 5 µM. For the same compound, the IC50 (Z138; Z-138, 72 h) was 15 to 100 µM, the IC50 (BxPC-3; BXPC-3, 72 h) was 15 to 100 µM and the IC50 (NCI-H929; NCI-H929, 72 h) was 15 to 100 µM.
